The term EC50 denotes the concentration needed to bring the measured effect to its halfway point. A lower EC50 goes with an effect from little substance.

Values joined by “and” are separate entries in the source; they are usually repeats but may differ in a detail not shown here. Equal values may be shown once. No end group written: not given here.

Holding throughout (assay type): cell-based
In one experiment the target is T1, (P1.35L)-MRGPRX2 (Homo sapiens, UniProt Q96LB1, P33L).
T1 construct: host or cells: COS-7
T1 sequence (Q96LB1 1-330 P33L): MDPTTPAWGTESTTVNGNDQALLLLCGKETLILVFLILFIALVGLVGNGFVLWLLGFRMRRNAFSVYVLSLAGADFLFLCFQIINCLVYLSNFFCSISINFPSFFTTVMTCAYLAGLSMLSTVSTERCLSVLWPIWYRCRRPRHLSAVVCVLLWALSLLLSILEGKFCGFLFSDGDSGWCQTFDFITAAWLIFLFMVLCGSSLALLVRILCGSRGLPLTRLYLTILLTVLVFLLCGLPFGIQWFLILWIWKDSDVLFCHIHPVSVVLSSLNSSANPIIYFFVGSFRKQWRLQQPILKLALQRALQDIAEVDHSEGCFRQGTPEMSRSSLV
The experiment is described as follows: Intracellular Ca2+ mobilization in COS-7 cells, Gαq16-fused receptor, (P1.35L)-MRGPRX2. As to conditions: COS-7, Ca2+ mobilization. Background: Calcium assays in cells follow changes in intracellular calcium, usually with a dye or a luminescent sensor.

The target of a further experiment is T2, MRGPRX1 WT (Homo sapiens, UniProt Q96LB2).
T2 construct: host or cells: COS-7
Put plainly: Intracellular Ca2+ mobilization in COS-7 cells, Gαq16-fused receptor, wildtype MRGPRX1. Particulars: BAM8–22. The source says: (§1) ORFs of MRGPRX1 and MRGPRX2 purchased from OriGene and Mm-MRGPRX1 synthesized in Genscript were C-terminally fused with the human Gαq16 protein as described previously ([23]). Briefly, the human Gαq16 ORF clone (OriGene) was amplified and ligated into the XbaI site of a pcDNA6 plasmid (Invitrogen). Then, MRGPRX1 and MRGPRX2 were subcloned (Table S1) into the NotI–XbaI site of the Gαq16-ligated pcDNA6 plasmids. MRGPRX1 and two mutants were constructed using the PrimeSTAR Mutagenesis Basal Kit with mutation oligos (Table S1).
(§2) COS-7 cells were purchased from American Type Culture Collection and cultured in Dulbecco's modified Eagle's medium (Nacalai Tesque) supplemented with 10% fetalbovine serum (Sigma) and maintained at 37°C under 5% CO2. Intracellular Ca^2+ mobilization was measured as previously described ([42], [43]). In brief, 5 × 10^5 COS-7 cells were spread on a 60-mm dish 1 day before transfection. […] Real-time Ca^2+ mobilization of Gαq16-fused MRGPRX1/2 was measured using a Ca5 kit (Molecular Devices) and FlexStation III according to the manufacturer’s instructions. The calcium accumulation data were analyzed using Prism, version 6 (GraphPad) and found to fit a sigmoidal concentration–response curve, and the means ± SEMs of EC50 were calculated.

The next experiment addresses T3, (L1.35P)-MRGPRX1 (Homo sapiens, UniProt Q96LB2, L30P).
T3 construct: host or cells: COS-7
The experiment is described as follows: Intracellular Ca2+ mobilization in COS-7 cells, Gαq16-fused receptor, (L1.35P)-MRGPRX1.
Excerpt: as §1, §2

The target in the next experiment is T4, (S1.43A)-MRGPRX1 (Homo sapiens, UniProt Q96LB2, S38A).
T4 construct: host or cells: COS-7
Put plainly: Intracellular Ca2+ mobilization in COS-7 cells, Gαq16-fused receptor, (S1.43A)-MRGPRX1. As to conditions: BAM8–22.
Excerpt: as §1, §2

Another experiment deals with T5, Mm-MRGPRX1 WT (Macaca mulatta, UniProt A0A5F7ZSN8).
T5 construct: host or cells: COS-7
Put plainly: Intracellular Ca2+ mobilization in COS-7 cells, Gαq16-fused receptor, intact Mm-MRGPRX1. As to conditions: BAM8–22.
Excerpt: as §1, §2

In another experiment the target is (F1.35L)-Mm-MRGPRX1 (Macaca mulatta, UniProt A0A5F7ZSN8, F30L). Put plainly: Intracellular Ca2+ mobilization in COS-7 cells, Gαq16-fused receptor, (F1.35L)-Mm-MRGPRX1. As to conditions: BAM8–22; COS-7, Ca2+ mobilization; mean ± standard error of three replicate analyses; read-out: Maximal response.
Excerpt: as §1, §2

Experiment [1] concerns the target T6, (L1.35P, I3.24F, W4.61G)-MRGPRX1 (Homo sapiens, UniProt Q96LB2, I94F/L30P/W158G).
T6 construct: host or cells: COS-7
Put plainly: Intracellular Ca2+ mobilization in COS-7 cells, Gαq16-fused receptor, (L1.35P, I3.24F, W4.61G)-MRGPRX1.
Excerpt: as §1
(§3) COS-7 cells were purchased from American Type Culture Collection and cultured in Dulbecco's modified Eagle's medium (Nacalai Tesque) supplemented with 10% fetalbovine serum (Sigma) and maintained at 37°C under 5% CO2. Intracellular Ca^2+ mobilization was measured as previously described ([42], [43]). In brief, 5 × 10^5 COS-7 cells were spread on a 60-mm dish 1 day before transfection. About 10 μg of GPCR expression vector were transfected into the cells using Lipofectamine 2000 (Thermo Fisher Scientific) according to the manufacturer’s instructions. After the 24-h incubation, 6 × 10^4 cells per well were respread on a 96-well plate for the following assay. Each MRGPRX mutant fused with human Gαq16 for expression at the cell membrane was confirmed by immunostaining using the anti-Gαq16 antibody (Ori Gene TA318890) (Fig. S5). SP (PEPTIDE […]) and BAM8–22 (Tocris Bioscience) were used for the assays. Real-time Ca^2+ mobilization of Gαq16-fused MRGPRX1/2 was measured using a Ca5 kit (Molecular Devices) and FlexStation III according to the manufacturer’s instructions. The calcium accumulation data were analyzed using Prism, version 6 (GraphPad) and found to fit a sigmoidal concentration–response curve, and the means ± SEMs of EC50 were calculated.

For the next experiment, the target named is T7, (I3.24F, W4.61G)-MRGPRX1 (Homo sapiens, UniProt Q96LB2, I94F/W158G).
T7 construct: host or cells: COS-7
The experiment is described as follows: Intracellular Ca2+ mobilization in COS-7 cells, Gαq16-fused receptor, (I3.24F, W4.61G)-MRGPRX1.
Excerpt: as §1, §3

For experiment [2], the target named is (I3.24F, W4.61G)-Mm-MRGPRX1 (Macaca mulatta, UniProt A0A5F7ZSN8, I94F/W158G). Put plainly: Intracellular Ca2+ mobilization in COS-7 cells, Gαq16-fused receptor, (I3.24F, W4.61G)-Mm-MRGPRX1. As to conditions: SP.
Excerpt: as §1, §2

[3] abbreviates: COS-7, Ca2+ mobilization, mean ± standard error of three replicate analyses, read-out: Maximal response.
[4] abbreviates: COS-7, Gαq16-fused, Ca2+ mobilization, three replicate analyses.
The mark [5] stands for this setting: COS-7, SP, compared with intact MRGPRX2, mean ± standard error of three replicate analyses, read-out: Maximal response (Emax).
The mark [6] stands for this setting: SP, COS-7, Gαq16-fused, Ca2+ mobilization, three replicate analyses.

Chain of (I3.24F, W4.61G)-Mm-MRGPRX1 (A0A5F7ZSN8 1-322 I94F/W158G): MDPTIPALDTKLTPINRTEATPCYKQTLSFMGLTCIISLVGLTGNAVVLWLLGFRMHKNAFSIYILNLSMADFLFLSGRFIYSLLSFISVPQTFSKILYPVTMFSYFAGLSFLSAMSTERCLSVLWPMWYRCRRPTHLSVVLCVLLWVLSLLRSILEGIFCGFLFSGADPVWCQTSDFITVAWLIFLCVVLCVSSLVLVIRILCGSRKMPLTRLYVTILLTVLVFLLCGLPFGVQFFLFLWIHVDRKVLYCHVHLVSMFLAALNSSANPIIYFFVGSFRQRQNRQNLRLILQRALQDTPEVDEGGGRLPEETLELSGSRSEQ
T7 sequence (Q96LB2 whole entry I94F/W158G): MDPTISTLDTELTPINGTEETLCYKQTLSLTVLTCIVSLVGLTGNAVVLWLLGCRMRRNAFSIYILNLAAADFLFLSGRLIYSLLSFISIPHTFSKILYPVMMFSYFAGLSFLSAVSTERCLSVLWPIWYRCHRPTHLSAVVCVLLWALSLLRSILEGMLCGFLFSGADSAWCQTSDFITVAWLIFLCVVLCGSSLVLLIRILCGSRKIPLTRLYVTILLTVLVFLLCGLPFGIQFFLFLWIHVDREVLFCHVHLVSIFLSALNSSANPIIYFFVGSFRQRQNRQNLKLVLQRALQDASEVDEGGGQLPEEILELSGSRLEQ
T6 sequence (Q96LB2 whole entry L30P/I94F/W158G): as the sequence (Q96LB2 whole entry I94F/W158G) above, with L30P counted along it
T2 sequence (Q96LB2 whole entry): as the sequence (Q96LB2 whole entry I94F/W158G) above, with F94I, G158W counted along it
T3 sequence (Q96LB2 whole entry L30P): as the sequence (Q96LB2 whole entry I94F/W158G) above, with L30P, F94I, G158W counted along it
T5 sequence (A0A5F7ZSN8 1-322): as the sequence (A0A5F7ZSN8 1-322 I94F/W158G) above, with F94I, G158W counted along it
T4 sequence (Q96LB2 whole entry S38A): as the sequence (Q96LB2 whole entry I94F/W158G) above, with S38A, F94I, G158W counted along it
Chain of (F1.35L)-Mm-MRGPRX1 (A0A5F7ZSN8 1-322 F30L): as the sequence (A0A5F7ZSN8 1-322 I94F/W158G) above, with F30L, F94I, G158W counted along it
Protocol for (P1.35L)-MRGPRX2: COS-7 cells were purchased from American Type Culture Collection and cultured in Dulbecco's modified Eagle's medium (Nacalai Tesque) supplemented with 10% fetalbovine serum (Sigma) and maintained at 37°C under 5% CO2. Intracellular Ca^2+ mobilization was measured as previously described ([42], [43]). In brief, 5 × 10^5 COS-7 cells were spread on a 60-mm dish 1 day before transfection. About 10 μg of GPCR expression vector were transfected into the cells using Lipofectamine 2000 (Thermo Fisher Scientific) according to the manufacturer’s instructions. After the 24-h incubation, 6 × 10^4 cells per well were respread on a 96-well plate for the following assay. […] Real-time Ca^2+ mobilization of Gαq16-fused MRGPRX1/2 was measured using a Ca5 kit (Molecular Devices) and FlexStation III according to the manufacturer’s instructions. The calcium accumulation data were analyzed using Prism, version 6 (GraphPad) and found to fit a sigmoidal concentration–response curve, and the means ± SEMs of EC50 were calculated.

Regarding “VGRPEWWMDYQKRYG [BAM8–22, bovine adrenal medulla peptide 8–22]”, on (P1.35L)-MRGPRX2, the “Response to 3 μM BAM8–22” value is 30.23 ± 1.08%. Further, the Emax was 100 ± 7.78% at MRGPRX1 WT (setting [3]), 102 ± 9.64% on (S1.43A)-MRGPRX1 (setting [3]), 66.5 ± 2.91% at Mm-MRGPRX1 WT (setting [3]) and 100 ± 1.94% at (F1.35L)-Mm-MRGPRX1. For the same molecule, the EC50 on MRGPRX1 WT (setting [4]) was 170 nM; on (L1.35P)-MRGPRX1 (BAM8–22, COS-7, Gαq16-fused, Ca2+ mobilization, three replicate analyses) it was 3160 nM; at (S1.43A)-MRGPRX1 (setting [4]), 200 nM; at Mm-MRGPRX1 WT (setting [4]), 2570 nM. For the same molecule, at (L1.35P)-MRGPRX1 (3 μM BAM8–22, COS-7, Ca2+ mobilization), the “Response to 3 μM BAM8–22, of that of wildtype MRGPRX1” value turned out to be 48.48 ± 1.08%.

With `CSCC[C@H](NC(=O)[C@H](CC(C)C)NC(=O)CNC(=O)[C@H](Cc1ccccc1)NC(=O)[C@H](Cc1ccccc1)NC(=O)[C@H](CCC(N)=O)NC(=O)[C@H](CCC(N)=O)NC(=O)[C@@H]1CCCN1C(=O)[C@H](CCCCN)NC(=O)[C@@H]1CCCN1C(=O)[C@@H](N)CCCNC(=N)N)C(N)=O` [SP, substance P], the “EC50 compared with MRGPRX2-SP (in words)” value in experiment [1] (COS-7, Ca2+ mobilization) is “comparable to that of MRGPRX2-SP”; on (I3.24F, W4.61G)-MRGPRX1 (COS-7, Ca2+ mobilization), “comparable to that of MRGPRX2-SP”. Further, the Emax in [1] (setting [5]) stood at 39.5 ± 3%; on (I3.24F, W4.61G)-MRGPRX1 (setting [5]), 42.1 ± 2.28%; in experiment [2] (setting [3]), 100 ± 5.28%. For the same molecule, the EC50 in experiment [1] (setting [6]) was 1660 nM; on (I3.24F, W4.61G)-MRGPRX1 (setting [6]) it was 2240 nM; in [2] (setting [4]), 200 nM and 690 nM.

(Values after article PMC11910321, “Evolutionary scenarios for the specific recognition of nonhomologous endogenous peptides by G protein–coupled receptor paralogs” (The Journal of Biological Chemistry, 2024).)
